For test [1], the target named is Voltage-dependent L-type calcium channel subunit alpha-1C (Rattus norvegicus, UniProt P22002). Type of test: functional.
Test [2] has as its target Sodium-dependent noradrenaline transporter (Homo sapiens, UniProt P23975).
For test [3], the target named is T1, Mu-type opioid receptor (Homo sapiens, UniProt P35372).
Test [4] has as its target T2, Alpha-2B adrenergic receptor (Homo sapiens, UniProt P18089).
T2 sequence (P18089 whole entry): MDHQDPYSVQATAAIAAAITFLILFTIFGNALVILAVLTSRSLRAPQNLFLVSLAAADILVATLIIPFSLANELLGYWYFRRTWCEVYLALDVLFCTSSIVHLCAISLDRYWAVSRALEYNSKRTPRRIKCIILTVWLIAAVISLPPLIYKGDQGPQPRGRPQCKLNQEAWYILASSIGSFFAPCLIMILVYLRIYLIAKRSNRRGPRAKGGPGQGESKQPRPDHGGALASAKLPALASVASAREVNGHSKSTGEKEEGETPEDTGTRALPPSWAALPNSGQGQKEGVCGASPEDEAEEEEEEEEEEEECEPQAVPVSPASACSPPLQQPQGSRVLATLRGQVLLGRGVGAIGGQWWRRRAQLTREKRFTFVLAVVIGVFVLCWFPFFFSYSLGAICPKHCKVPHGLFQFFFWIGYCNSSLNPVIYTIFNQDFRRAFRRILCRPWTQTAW

Test [5] concerns the target Beta-2 adrenergic receptor (Homo sapiens, UniProt P07550).
The target in test [6] is Histamine H3 receptor (Homo sapiens, UniProt Q9Y5N1).
The target in test [7] is T3, Muscarinic acetylcholine receptor M2 (Homo sapiens, UniProt P08172).
T3 sequence (P08172 whole entry): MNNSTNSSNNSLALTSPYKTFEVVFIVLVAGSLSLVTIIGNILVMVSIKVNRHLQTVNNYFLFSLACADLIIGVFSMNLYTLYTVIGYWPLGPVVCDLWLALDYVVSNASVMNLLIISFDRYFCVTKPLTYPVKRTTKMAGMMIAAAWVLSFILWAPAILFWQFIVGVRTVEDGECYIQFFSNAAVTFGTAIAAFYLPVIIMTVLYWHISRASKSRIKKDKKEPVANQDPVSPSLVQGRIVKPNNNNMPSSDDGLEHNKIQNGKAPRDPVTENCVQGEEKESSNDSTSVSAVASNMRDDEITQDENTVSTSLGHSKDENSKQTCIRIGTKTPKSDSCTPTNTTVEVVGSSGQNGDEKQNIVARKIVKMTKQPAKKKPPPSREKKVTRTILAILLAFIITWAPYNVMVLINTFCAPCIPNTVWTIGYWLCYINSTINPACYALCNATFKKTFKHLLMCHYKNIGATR
Type of test: functional, cell-based.

The target in test [8] is Muscarinic acetylcholine receptor M3 (Homo sapiens, UniProt P20309).
Test [9] addresses Cannabinoid receptor 1 (Homo sapiens, UniProt P21554). Type of test: functional, cell-based.
Test [10] has as its target T4, Alpha-1A adrenergic receptor (Homo sapiens, UniProt P35348).
T4 sequence (P35348 whole entry): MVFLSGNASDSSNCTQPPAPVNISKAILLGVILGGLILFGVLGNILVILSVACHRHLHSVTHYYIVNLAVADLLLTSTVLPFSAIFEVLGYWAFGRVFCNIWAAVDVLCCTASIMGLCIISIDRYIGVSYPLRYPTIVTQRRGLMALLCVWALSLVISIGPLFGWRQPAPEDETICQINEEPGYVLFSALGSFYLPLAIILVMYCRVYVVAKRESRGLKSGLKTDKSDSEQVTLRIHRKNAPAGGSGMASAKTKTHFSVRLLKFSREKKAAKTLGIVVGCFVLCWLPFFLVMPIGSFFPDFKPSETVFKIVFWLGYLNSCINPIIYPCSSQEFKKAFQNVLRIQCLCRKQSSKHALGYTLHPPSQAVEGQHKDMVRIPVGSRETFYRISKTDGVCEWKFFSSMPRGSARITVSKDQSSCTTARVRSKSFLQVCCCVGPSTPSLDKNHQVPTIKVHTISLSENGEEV
Type of test: functional, cell-based.

The target in test [11] is T5, Progesterone receptor (Homo sapiens, UniProt P06401).
T5 sequence (P06401 whole entry): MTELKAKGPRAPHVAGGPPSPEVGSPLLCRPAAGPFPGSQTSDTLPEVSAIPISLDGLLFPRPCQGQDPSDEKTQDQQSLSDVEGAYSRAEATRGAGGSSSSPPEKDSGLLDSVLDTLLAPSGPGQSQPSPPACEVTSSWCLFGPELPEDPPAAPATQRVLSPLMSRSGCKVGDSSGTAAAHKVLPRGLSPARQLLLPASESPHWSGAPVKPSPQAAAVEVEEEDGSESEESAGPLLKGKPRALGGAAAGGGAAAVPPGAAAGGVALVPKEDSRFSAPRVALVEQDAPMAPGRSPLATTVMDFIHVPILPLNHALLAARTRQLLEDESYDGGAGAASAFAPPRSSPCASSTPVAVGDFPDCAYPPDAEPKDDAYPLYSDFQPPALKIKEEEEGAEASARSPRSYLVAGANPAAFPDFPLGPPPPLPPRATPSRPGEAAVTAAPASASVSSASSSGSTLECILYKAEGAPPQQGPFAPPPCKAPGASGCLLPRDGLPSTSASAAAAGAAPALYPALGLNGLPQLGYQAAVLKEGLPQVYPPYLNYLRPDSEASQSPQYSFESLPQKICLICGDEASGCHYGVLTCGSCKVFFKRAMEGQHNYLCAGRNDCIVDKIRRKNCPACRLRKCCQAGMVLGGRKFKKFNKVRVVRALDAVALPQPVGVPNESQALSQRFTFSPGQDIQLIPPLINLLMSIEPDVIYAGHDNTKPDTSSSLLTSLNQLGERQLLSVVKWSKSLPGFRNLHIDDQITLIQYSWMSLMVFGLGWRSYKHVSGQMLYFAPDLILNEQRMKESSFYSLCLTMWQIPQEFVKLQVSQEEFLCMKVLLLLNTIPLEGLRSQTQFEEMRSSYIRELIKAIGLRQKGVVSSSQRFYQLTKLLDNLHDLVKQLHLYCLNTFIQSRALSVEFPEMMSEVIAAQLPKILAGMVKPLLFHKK
The format is functional.

The target of test [12] is T4, Alpha-1A adrenergic receptor. Type of test: functional, cell-based. This is another data set of the same source.
In test [13] the target is T1, Mu-type opioid receptor. Put plainly: biochemical. The format is functional.
Test [14] deals with 5-hydroxytryptamine receptor 2A (Homo sapiens, UniProt P28223). Type of test: functional, cell-based.
Note: assay procedure not described here.

Sequence of Histamine H3 receptor (Q9Y5N1 whole entry): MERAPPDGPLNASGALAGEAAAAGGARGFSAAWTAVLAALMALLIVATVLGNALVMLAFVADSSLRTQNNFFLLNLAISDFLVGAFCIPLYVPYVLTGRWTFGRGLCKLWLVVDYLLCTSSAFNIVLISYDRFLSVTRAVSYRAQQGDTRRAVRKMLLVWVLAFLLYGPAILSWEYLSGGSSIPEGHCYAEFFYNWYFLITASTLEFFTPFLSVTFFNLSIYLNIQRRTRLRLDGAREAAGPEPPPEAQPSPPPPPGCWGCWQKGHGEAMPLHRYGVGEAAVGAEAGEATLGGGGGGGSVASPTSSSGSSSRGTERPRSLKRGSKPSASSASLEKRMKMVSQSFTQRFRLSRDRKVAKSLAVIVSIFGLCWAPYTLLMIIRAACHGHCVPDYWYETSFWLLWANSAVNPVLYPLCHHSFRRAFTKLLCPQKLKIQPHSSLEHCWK
T1 sequence (P35372 whole entry): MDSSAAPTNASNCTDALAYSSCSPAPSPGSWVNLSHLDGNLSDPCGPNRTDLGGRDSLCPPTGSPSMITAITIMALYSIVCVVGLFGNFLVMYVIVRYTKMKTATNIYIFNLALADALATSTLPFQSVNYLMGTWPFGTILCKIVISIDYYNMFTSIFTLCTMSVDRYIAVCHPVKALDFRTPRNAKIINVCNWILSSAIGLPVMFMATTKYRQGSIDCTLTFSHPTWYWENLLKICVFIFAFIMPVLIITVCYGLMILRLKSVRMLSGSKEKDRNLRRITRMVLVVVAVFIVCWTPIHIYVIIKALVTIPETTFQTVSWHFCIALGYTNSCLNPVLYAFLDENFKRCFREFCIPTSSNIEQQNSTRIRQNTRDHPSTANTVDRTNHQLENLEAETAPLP
Sequence of Sodium-dependent noradrenaline transporter (P23975 whole entry): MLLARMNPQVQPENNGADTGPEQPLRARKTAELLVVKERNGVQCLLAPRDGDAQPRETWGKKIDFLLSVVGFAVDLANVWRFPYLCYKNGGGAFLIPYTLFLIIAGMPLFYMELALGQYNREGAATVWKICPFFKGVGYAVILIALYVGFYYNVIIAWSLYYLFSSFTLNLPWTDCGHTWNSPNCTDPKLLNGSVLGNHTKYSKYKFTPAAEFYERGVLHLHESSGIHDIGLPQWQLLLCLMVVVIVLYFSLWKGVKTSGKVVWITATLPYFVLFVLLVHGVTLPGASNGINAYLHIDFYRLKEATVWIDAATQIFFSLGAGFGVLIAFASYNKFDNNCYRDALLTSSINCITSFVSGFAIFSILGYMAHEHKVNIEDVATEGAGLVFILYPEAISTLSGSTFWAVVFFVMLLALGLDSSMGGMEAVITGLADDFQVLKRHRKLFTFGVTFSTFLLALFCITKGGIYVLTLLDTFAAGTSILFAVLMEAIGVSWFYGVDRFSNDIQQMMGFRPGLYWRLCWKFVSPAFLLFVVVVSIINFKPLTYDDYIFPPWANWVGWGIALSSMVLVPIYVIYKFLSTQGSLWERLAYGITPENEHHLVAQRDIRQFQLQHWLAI
Sequence of Beta-2 adrenergic receptor (P07550 whole entry): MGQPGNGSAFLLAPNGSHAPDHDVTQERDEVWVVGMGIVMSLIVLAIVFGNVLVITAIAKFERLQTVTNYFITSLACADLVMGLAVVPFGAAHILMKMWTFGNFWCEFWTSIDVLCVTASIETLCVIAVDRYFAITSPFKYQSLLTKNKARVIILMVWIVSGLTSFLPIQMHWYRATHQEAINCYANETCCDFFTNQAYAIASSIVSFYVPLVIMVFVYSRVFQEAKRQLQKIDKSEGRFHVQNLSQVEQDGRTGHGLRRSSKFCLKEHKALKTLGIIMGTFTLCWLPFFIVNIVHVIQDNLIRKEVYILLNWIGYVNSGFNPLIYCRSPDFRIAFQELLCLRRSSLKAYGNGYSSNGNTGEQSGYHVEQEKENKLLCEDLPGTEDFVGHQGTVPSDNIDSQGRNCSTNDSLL
Sequence of Voltage-dependent L-type calcium channel subunit alpha-1C (P22002 whole entry): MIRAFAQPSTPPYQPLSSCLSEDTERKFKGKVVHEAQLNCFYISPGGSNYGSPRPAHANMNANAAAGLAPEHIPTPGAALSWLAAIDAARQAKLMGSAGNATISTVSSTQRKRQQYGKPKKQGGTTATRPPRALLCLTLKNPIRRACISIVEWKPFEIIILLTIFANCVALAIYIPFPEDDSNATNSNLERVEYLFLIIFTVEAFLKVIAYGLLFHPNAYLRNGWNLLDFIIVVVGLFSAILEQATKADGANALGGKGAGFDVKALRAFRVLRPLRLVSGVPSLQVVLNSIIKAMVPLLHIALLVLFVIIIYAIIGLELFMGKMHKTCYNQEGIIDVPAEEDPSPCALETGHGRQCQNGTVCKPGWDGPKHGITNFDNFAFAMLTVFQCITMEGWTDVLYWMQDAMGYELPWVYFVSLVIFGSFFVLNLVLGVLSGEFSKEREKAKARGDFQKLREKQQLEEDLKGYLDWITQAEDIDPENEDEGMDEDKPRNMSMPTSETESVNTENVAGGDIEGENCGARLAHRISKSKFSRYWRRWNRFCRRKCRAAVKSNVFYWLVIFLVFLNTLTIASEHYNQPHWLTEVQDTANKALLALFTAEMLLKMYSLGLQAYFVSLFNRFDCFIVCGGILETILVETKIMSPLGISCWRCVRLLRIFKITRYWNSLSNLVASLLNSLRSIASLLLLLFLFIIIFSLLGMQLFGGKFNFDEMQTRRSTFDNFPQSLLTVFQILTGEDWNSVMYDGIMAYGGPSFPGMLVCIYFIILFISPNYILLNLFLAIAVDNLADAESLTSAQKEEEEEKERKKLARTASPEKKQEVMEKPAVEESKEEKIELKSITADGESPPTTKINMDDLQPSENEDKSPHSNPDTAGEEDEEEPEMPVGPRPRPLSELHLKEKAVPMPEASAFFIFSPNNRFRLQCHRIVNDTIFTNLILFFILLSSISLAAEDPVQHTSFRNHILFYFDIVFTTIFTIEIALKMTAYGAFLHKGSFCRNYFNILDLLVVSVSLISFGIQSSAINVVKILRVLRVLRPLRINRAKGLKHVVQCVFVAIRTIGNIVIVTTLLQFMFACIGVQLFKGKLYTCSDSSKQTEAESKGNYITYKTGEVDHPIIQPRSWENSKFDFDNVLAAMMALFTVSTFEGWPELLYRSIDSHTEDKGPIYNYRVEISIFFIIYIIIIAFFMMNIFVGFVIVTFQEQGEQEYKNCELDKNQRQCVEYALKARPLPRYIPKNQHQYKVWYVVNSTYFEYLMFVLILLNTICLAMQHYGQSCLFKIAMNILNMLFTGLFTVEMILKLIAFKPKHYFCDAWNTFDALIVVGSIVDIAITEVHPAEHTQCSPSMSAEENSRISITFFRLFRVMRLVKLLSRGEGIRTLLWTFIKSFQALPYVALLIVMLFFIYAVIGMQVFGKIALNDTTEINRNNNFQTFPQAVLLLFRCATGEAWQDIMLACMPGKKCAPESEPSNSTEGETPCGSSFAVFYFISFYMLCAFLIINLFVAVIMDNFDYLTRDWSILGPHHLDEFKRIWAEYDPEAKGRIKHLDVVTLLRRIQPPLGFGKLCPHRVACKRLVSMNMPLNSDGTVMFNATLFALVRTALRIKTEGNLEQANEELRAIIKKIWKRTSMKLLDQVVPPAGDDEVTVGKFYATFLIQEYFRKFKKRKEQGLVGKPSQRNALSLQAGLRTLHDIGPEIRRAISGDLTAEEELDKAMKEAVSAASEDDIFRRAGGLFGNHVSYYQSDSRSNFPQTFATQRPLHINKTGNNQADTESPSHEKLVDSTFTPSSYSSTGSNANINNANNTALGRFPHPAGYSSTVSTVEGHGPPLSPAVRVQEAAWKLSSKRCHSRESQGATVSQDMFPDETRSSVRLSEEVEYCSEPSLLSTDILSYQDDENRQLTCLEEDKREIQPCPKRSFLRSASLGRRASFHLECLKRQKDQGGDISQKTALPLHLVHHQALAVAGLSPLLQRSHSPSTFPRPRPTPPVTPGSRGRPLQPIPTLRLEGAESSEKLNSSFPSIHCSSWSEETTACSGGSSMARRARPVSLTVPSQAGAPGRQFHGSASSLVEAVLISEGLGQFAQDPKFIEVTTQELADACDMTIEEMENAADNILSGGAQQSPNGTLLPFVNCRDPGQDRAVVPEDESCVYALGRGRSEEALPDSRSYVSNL
Sequence of Muscarinic acetylcholine receptor M3 (P20309 whole entry): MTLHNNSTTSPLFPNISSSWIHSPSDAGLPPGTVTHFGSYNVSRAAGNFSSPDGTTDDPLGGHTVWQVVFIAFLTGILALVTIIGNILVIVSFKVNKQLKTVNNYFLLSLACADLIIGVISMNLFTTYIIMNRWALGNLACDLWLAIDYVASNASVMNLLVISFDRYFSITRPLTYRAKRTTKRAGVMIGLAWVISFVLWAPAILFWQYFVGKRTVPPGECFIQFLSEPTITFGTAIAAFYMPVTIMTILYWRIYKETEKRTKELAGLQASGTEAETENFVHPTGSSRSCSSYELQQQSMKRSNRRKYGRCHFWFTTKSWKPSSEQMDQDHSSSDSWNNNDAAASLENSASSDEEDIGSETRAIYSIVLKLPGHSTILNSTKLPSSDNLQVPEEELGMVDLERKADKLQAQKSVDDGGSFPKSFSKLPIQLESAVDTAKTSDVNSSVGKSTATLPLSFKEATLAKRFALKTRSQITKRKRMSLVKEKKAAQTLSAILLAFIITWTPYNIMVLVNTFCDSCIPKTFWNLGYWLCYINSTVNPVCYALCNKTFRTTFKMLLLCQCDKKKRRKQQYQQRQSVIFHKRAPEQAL

The term AC50 denotes the concentration giving half of the maximal activity seen. On to `C[C@]1(COc2ccc(N3CCC(Oc4ccc(OC(F)(F)F)cc4)CC3)cc2)Cn2cc([N+](=O)[O-])nc2O1`, for which the concentration at half-maximal activity (AC50) in test [1], in test [2], in test [3], in test [4], in test [5] and in test [6] was more than 10 µM each time.

Take `C[C@]12CC[C@H](O)CC1=CC[C@@H]1[C@@H]2CC[C@]2(C)C(c3cccnc3)=CC[C@@H]12` [ABIRATERONE]: the AC50 was more than 10 µM in test [1]; more than 30 µM in test [2]; more than 30 µM in [3]; more than 10 µM in [4]; more than 10 µM in test [7]; more than 30 µM in [5]. For the same molecule, the AC50 was more than 30 µM in test [8] and more than 10 µM in [6].

In the case of `CC(=O)OCC[N+](C)(C)C` [ACETYLCHOLINE], the AC50 in test [9] was more than 30 µM; in [1], more than 10 µM; in [2], more than 30 µM; in [10], more than 30 µM; in test [3], more than 10 µM; in [4] it was more than 10 µM. Moreover, the concentration at half-maximal activity (AC50) in test [11] was more than 30 µM; in test [12], more than 30 µM; in [5] it was more than 30 µM; in [6] it was more than 10 µM.

In the case of `O=C(Nc1nc(-c2cc(Cl)cs2)c(N2CCN(C3CCCCC3)CC2)s1)c1cnc(N2CCC(C(=O)O)CC2)c(Cl)c1` [AVATROMBOPAG], the AC50 in test [1], in test [2], in test [3], in [4], in [5] and in test [8] was more than 10 µM throughout. In addition, the concentration at half-maximal activity (AC50) in test [6] was more than 10 µM.

`O=c1oc2ccccc2c(O)c1Cc1c(O)c2ccccc2oc1=O` [DICUMAROL]: the half-maximal activity concentration (AC50) in test [1] was more than 10 µM; in test [2], more than 10 µM; in test [13], more than 30 µM; in test [3], more than 30 µM; in [11], more than 10 µM; in test [7], more than 10 µM. Also, the AC50 in test [5] was more than 10 µM.

With `OCCN1CCN(CC/C=C2/c3ccccc3Sc3ccc(Cl)cc32)CC1` [ZUCLOPENTHIXOL], the AC50 in test [14] was 0.51 µM; in [1] it was more than 10 µM; in test [2] it was 17.4 µM; in test [13], more than 30 µM; in test [3] it was more than 10 µM; in test [4] it was 0.32 µM. For the same molecule, the AC50 in [11], in [7], in [5] and in [8] was more than 10 µM in each case.

For the origin of these results see ChEMBL document CHEMBL5291721, “A preclinical secondary pharmacology resource illuminates target-adverse drug reaction associations of marketed drugs” (Nat Commun, 2023).
